# Measured values as given in US8580789B2, “Treating glaucoma” (The Cleveland Clinic Foundation, priority 2007, dated 2013).
# Where “and” joins values, the source holds several entries; their conditions need not be identical. Equal entries are not always repeated.
# How the values were obtained:
# peripapillary sclera [1] = experiment: Estimate of PS ring elastic (secant) modulus by LaPlace equation and measured strain; design: species or system porcine
# Excerpt: By a similar analysis of strain across the ON in the same eyes, the pressure-induced change in ON diameter was 10.5±3.9% horizontally and 9.4±6.5% vertically prior to crosslinking. The combined vertical and horizontal strain averaged 7.3±4.4% across the PS ring and 10.2±5.4% across the ON/LC region alone (p=0.22). […] The native stiffness value compares favorably to the porcine scleral modulus of 500 kPa measured by Pierscionek B K, et al., Br J Opthalmol.; 91(6):801-803 (2007) particularly since their measurement was obtained at a lower peak pressure (50 mmHg) and was obtained from the entire sclera, which incorporates the thinner and effectively more elastic sclera anterior to the posterior pole (Olsen T W, et al., Invest Opthalmol Vis Sci; 43(8):2529-2532 (2002)).
# The elastic modulus (E) of peripapillary sclera (PS) in Group 3 was estimated before and after crosslinking. First, measured PS strain was […] the circumferential stress as derived from the LaPlace equation, σ=IOP×R/2t, where σ indicates the circumferential stress as a function of IOP, scleral radius of curvature (R), and sclera thickness (t). […]
# [2] = test system: optic nerve/lamina cribrosa complex; experiment: Photographic circumferential strain analysis during IOP elevation, ON/LC; design: species or system porcine; conditions: Group 3; GTA on PS only; IOP 2-4 to 80 mmHg
# Experimental: (§1) Eighteen porcine globes were divided evenly into 3 groups. The optic nerves were transected to expose the ON/LC, and each globe was infused through an in-line pressure transducer for direct IOP control. Surface wave velocity, a non-destructive measure of tissue stiffness, was measured across the ON/LC and PS before and after collagen crosslinking at IOP of 10 and 30 mmHg (groups 1 and 2) and at each globe's preinflation IOP and 80 mmHg (group 3). In group 3, papillary strain was measured by analyzing the displacement of fiducial marks immediately adjacent to the ON/LC using digital photography.
# (§2) In group 3 (n=6), the same procedure described for group 2 was implemented with the following exceptions. First, four fiducial ink marks were placed in each quadrant of the PS immediately adjacent to the ON/LC prior to measurement. High-resolution (7.1 megapixel) digital photos were then taken at both low and high IOP before and after crosslinking. The vertical and horizontal distances between the outer extent of the ink marks and the outer margins of the optic nerve were measured in Photoshop (Adobe Systems, Inc., San Jose, Calif.), and the centripetal displacement of the fiducial marks (Δ1) was divided by the initial distance between the marks (10) to yield dimensionless indicators of circumferential strain (ζ=Δ1/10) in the peripapillary sclera and ON/LC, respectively. Second, measurements were acquired at each eye's pre-inflation pressure (between 2 to 4 mmHg) and at 80 mmHg to ensure that measurable changes in SWV and ON/LC geometry would be generated in at least one experimental group. As in group 2, the peripapillary sclera was selectively exposed to GTA and post-crosslinking measurements were repeated at low and high IOP. Same-eye statistical comparisons of wave velocity and strain were performed with paired student's t-tests.
# human sclera = conditions: scleral strips; 1 hour glutaraldehyde, 5 days glyceraldehydes, 30 minutes UVA for riboflavin/UVA; cited from earlier work
# peripapillary sclera [3] = experiment: Photographic circumferential strain analysis during IOP elevation, peripapillary sclera; design: species or system porcine; conditions: Group 3; GTA on PS only; IOP 2-4 to 80 mmHg
# Experimental: as §1, §2
smiles,measurement,setting,value
"O=CCCCC=O [GTA, glutaraldehyde]",PS ring elastic modulus after crosslinking (estimate),"peripapillary sclera [1]; Group 3, GTA, stress increment 4 to 80 mmHg divided by crosslinked strain",16.1 MPa
same,Increase in stiffness (elastic modulus) of peripapillary sclera with crosslinking,"peripapillary sclera [1]; glutaraldehyde-mediated crosslinking, estimate",~20 fold
same,"Average Circumferential Strain of ON/LC with IOP elevation, Post-Crosslinking Mean ± SD",[2],0.0 ± 0.0%
same,"Horizontal Circumferential Strain of ON/LC with IOP elevation, Post-Crosslinking Mean ± SD",[2],0.0 ± 0.0%
same,"Vertical Circumferential Strain of ON/LC with IOP elevation, Post-Crosslinking Mean ± SD",[2],0.0 ± 0.0%
same,Rise in human scleral stress (rigidity),human sclera,122%
same,"Average Circumferential Strain of PS with IOP elevation, Post-Crosslinking Mean ± SD",peripapillary sclera [3],0.38% and 0.4 ± 1.3%
same,"Horizontal Circumferential Strain of PS with IOP elevation, Post-Crosslinking Mean ± SD",peripapillary sclera [3],0.0 ± 0.0%
same,"Vertical Circumferential Strain of PS with IOP elevation, Post-Crosslinking Mean ± SD",peripapillary sclera [3],0.7 ± 1.9%
